Data on 21 molecules can be found in US8846704B2, “Thiopyrimidine-based compounds and uses thereof” (YM Biosciences Austraila Pty Ltd, priority 2007, dated 2014).

Common to all, as to format: biochemical
The target of one experiment is T1, Blk(m) (Mus musculus, UniProt P16277).
T1 construct: purchased Upstate Biotechnology (Dundee, UK), KinaseProfiler service
Nature of the experiment: Upstate KinaseProfiler enzyme assay, Blk. Conditions: 500 nM compound; read-out: Percent inhibition at 500 nM Blk(m). Summed up: (§1)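 Standard profiling-service enzyme format. Kinases were brought to ten-fold working concentration in a pH 7.0 buffer of 20 mM MOPS, 1 mM EDTA, 5% glycerol, 1 mg/ml BSA, 0.01% Brij-35 and 0.1% β-mercaptoethanol; substrate working stocks were made in deionised water.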

For another experiment, the target named is T2, Bmx(h) (Homo sapiens, UniProt P51813).
T2 construct: purchased Upstate Biotechnology (Dundee, UK), KinaseProfiler service
T2 sequence (P51813 1-675): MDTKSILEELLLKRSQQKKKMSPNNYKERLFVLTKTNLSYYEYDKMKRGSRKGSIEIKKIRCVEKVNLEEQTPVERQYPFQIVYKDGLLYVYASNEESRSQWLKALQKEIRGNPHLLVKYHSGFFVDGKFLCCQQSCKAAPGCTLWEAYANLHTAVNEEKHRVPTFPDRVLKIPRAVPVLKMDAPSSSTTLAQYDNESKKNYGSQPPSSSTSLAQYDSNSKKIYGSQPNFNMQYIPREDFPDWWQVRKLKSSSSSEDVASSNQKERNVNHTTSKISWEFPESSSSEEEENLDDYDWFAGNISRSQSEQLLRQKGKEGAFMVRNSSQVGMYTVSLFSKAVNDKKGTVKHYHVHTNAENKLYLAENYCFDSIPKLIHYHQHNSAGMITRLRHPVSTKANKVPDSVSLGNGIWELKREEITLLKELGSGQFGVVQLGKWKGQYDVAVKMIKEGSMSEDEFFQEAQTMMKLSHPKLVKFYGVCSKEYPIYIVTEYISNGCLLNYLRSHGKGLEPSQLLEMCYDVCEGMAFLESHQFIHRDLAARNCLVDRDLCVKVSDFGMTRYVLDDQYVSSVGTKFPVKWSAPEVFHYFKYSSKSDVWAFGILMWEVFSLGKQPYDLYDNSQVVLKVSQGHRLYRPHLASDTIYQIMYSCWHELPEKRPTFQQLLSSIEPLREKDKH
Put plainly: Upstate KinaseProfiler enzyme assay, Bmx. Conditions: 500 nM compound; read-out: Percent inhibition at 500 nM Bmx(h). Summed up: as §1

The target of a further experiment is T3, BTK(h) (Homo sapiens, UniProt Q06187).
T3 construct: purchased Upstate Biotechnology (Dundee, UK), KinaseProfiler service
T3 sequence (Q06187 whole entry): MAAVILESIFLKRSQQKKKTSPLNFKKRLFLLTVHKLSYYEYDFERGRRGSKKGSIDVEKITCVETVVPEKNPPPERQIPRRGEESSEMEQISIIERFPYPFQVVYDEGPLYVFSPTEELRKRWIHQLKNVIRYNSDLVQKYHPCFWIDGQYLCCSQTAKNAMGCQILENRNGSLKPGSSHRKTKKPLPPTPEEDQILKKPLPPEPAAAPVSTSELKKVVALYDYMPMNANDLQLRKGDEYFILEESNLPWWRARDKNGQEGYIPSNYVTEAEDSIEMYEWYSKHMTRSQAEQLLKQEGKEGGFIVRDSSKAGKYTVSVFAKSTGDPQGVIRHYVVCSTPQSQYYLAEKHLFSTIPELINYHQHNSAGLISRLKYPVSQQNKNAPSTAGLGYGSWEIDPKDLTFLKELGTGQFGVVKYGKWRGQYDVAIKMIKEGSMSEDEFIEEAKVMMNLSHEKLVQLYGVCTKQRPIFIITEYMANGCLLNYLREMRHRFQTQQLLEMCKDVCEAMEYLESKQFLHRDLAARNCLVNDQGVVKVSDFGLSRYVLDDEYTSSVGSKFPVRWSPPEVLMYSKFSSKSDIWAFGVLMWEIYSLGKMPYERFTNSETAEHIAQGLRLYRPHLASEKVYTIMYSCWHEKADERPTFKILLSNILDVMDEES
Put plainly: Upstate KinaseProfiler enzyme assay, BTK. Conditions: 500 nM compound; read-out: Percent inhibition at 500 nM BTK(h). Summed up: as §1

The target of a further experiment is T4, KDR(h) (Homo sapiens, UniProt P35968).
T4 construct: purchased Upstate Biotechnology (Dundee, UK), KinaseProfiler service
Nature of the experiment: Upstate KinaseProfiler enzyme assay, KDR. The following applies: 500 nM compound; read-out: Percent inhibition at 500 nM KDR(h). Summed up:
as §1

For a further experiment, the target named is T5, Flt 1(h) (Homo sapiens, UniProt P17948).
T5 construct: purchased Upstate Biotechnology (Dundee, UK), KinaseProfiler service
T5 sequence (P17948 27-1338): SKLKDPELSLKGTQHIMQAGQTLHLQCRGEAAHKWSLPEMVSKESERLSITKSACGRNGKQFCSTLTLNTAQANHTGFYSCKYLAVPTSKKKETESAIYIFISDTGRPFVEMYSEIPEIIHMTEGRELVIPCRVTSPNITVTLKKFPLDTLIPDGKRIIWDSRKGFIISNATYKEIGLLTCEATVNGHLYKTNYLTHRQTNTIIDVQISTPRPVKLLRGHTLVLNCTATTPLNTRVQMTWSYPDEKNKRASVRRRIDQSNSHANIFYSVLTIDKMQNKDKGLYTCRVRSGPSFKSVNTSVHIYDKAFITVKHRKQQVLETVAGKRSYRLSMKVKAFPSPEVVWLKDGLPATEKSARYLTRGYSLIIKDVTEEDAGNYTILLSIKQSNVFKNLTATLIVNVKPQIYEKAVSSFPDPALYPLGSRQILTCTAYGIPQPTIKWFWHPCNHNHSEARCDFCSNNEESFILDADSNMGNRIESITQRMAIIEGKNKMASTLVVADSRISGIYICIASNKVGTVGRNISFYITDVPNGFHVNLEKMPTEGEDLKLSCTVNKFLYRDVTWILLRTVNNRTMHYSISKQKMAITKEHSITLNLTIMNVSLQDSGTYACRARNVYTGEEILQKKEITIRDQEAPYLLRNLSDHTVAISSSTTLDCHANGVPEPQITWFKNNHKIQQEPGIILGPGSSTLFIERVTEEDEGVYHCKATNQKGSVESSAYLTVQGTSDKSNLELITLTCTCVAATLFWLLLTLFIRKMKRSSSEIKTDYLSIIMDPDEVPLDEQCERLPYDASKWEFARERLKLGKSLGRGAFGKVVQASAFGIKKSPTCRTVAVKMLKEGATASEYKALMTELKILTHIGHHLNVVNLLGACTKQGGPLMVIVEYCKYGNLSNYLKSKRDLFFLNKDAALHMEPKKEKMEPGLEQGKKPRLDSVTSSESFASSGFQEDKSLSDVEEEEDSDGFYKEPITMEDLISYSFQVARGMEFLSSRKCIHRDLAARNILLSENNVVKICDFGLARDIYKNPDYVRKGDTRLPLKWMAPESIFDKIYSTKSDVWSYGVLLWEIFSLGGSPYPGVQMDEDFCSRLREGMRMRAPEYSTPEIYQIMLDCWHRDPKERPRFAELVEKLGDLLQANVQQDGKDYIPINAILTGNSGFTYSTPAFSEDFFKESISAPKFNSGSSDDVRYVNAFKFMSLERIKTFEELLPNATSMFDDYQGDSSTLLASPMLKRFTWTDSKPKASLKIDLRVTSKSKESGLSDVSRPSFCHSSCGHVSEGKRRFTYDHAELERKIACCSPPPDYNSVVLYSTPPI
Nature of the experiment: Upstate KinaseProfiler enzyme assay, Flt 1. The following applies: 500 nM compound; read-out: Percent inhibition at 500 nM Flt 1(h). The gist of the method:
as §1

A further experiment addresses T6, Flt 4(h) (Homo sapiens, UniProt P35916).
T6 construct: purchased Upstate Biotechnology (Dundee, UK), KinaseProfiler service
Nature of the experiment: Upstate KinaseProfiler enzyme assay, Flt 4. The following applies: 500 nM compound; read-out: Percent inhibition at 500 nM Flt 4(h). The gist of the method:
as §1

T6 sequence (P35916 25-1363): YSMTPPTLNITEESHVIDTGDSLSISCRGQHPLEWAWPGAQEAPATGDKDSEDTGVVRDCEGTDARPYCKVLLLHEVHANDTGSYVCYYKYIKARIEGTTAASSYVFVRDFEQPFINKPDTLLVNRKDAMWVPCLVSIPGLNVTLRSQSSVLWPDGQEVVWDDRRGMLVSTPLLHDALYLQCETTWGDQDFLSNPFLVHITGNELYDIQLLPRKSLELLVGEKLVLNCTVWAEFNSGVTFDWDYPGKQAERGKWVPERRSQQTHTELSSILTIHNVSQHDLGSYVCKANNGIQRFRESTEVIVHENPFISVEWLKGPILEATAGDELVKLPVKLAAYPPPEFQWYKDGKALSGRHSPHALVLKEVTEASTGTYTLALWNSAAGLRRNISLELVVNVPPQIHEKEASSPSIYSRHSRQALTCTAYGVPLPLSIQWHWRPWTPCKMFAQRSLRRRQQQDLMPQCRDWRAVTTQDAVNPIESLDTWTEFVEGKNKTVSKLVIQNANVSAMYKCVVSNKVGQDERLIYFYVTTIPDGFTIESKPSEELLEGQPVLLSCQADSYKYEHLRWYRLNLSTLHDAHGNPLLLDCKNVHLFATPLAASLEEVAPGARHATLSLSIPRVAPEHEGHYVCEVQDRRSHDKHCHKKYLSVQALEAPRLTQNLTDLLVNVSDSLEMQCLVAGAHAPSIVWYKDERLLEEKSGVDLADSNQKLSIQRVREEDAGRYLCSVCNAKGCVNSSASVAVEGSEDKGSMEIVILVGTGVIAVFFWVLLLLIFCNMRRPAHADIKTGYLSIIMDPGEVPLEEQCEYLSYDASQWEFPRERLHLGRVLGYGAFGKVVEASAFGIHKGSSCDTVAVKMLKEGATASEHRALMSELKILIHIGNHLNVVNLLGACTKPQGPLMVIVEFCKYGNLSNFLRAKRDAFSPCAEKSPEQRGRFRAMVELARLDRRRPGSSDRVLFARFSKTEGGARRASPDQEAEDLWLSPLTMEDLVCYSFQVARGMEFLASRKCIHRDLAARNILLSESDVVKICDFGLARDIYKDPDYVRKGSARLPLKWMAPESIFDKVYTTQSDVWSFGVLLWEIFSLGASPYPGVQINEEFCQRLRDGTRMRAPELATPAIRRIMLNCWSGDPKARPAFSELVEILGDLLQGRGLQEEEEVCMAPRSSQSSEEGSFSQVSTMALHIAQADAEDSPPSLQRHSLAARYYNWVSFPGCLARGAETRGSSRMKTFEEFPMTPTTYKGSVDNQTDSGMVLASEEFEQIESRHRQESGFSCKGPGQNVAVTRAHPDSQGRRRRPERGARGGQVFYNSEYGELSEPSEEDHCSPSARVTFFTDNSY
T1 sequence (P16277 whole entry): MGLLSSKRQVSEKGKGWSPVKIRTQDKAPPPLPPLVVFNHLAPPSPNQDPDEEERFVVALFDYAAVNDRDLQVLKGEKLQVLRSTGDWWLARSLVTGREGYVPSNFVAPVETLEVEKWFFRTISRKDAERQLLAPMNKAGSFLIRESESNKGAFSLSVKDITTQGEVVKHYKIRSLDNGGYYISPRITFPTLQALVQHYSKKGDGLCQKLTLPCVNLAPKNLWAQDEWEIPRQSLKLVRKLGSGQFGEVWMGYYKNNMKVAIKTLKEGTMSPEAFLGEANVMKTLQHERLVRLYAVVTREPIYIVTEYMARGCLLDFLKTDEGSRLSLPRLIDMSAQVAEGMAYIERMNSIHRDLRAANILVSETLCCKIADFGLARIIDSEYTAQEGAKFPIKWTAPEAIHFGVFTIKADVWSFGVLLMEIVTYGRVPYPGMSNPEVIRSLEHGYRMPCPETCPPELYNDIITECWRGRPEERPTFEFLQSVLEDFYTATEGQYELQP

With `C=CC(=O)Nc1ccc(Sc2ccnc(Nc3ccc(OC)cc3)n2)cc1` [Compound 74, N-(4-(2-(4-methoxyphenylao)pyrimidin-4-ylthio)phenyl)acrylamide], the inhibition at 0.5 µM at Blk(m), at Bmx(h), at BTK(h) and on KDR(h) was 100% in each case.

On to `C=CC(=O)Nc1ccc(Sc2ccnc(Nc3ccc(N4CCC(N5CCCC5)CC4)cc3)n2)cc1` [Compound 87, N-(4-(2-(4-(4-(pyrrolidin-1-yl)piperidin-1-yl)phenylao)pyrimidin-4-ylthio)phenyl)acrylamide], for which the inhibition at 0.5 µM on Blk(m), at Bmx(h), at BTK(h) and on KDR(h) was 100% each time.

`C=CC(=O)Nc1ccc(Sc2ccnc(Nc3ccc(OC)c(O)c3)n2)cc1` [Compound 97]: the inhibition at 0.5 µM at Blk(m), at Bmx(h), on BTK(h) and at KDR(h) was 100% each time.

With `C=CC(=O)Nc1ccc(Sc2ccnc(Nc3ccc(N4CCS(=O)(=O)CC4)cc3)n2)cc1` [Compound 99, N-{4-[(2-{[4-(1,1-dioxo-1λ^6,4-thiomorpholin-4-yl)phenyl]ao}pyrimidin-4-yl)sulfanyl]phenyl}prop-2-enamide], the inhibition at 0.5 µM at Blk(m), on Bmx(h), on BTK(h) and at KDR(h) was 100% in each case.

As for `CC#CC(=O)Nc1ccc(Sc2ccnc(Nc3ccc(N4CCOCC4)cc3)n2)cc1` [Compound 104, N-(4-(2-(4-morpholinophenylao)pyrimidin-4-ylthio)phenyl)but-2-ynamide], the inhibition at 0.5 µM at Blk(m) came to 30%; at Bmx(h) it was 100%; on BTK(h), 73%.

With `C=CC(=O)Nc1ccc(Sc2ccnc(Nc3cccc(OC)c3)n2)cc1` [Compound 105, N-(4-(2-(3-methoxyphenylao)pyrimidin-4-ylthio)phenyl)acrylamide], the inhibition at 0.5 µM on Blk(m), on Bmx(h), on BTK(h) and at KDR(h) was 100% each time.

As for `C=CC(=O)Nc1ccc(Sc2ccnc(Nc3cccc(C#N)c3)n2)cc1` [Compound 118, N-(4-(2-(3-cyanophenylao)pyrimidin-4-ylthio)phenyl)acrylamide], the inhibition at 0.5 µM at Blk(m), at Bmx(h), on BTK(h) and on KDR(h) was 100% each time.

Turning to `C=CC(=O)Nc1cccc(Sc2ccnc(Nc3ccc(OC)cc3)n2)c1` [Compound 120, N-(3-(2-(4-methoxyphenylao)pyrimidin-4-ylthio)phenyl)acrylamide], the inhibition at 0.5 µM at Blk(m), at Bmx(h), at BTK(h) and on KDR(h) was 100% each time.

For the molecule `CC#CC(=O)Nc1ccc(Sc2nc(Nc3ccc(N4CCOCC4)cc3)ncc2C)cc1` [Compound 125, N-(4-(5-methyl-2-(4-morpholinophenylao)pyrimidin-4-ylthio)phenyl)but-2-ynamide], the inhibition at 0.5 µM on Blk(m), at Bmx(h), on BTK(h) and on KDR(h) was 100% in each case.

In the case of `Cc1cnc(Nc2ccc(N3CCOCC3)cc2)nc1Sc1ccc(N)cc1` [Compound 126, 4-(4-aophenylthio)-5-methyl-N-(4-morpholinophenyl)pyrimidin-2-ae], the inhibition at 0.5 µM was determined as 43% at Blk(m); 93% on Flt 1(h); 99% on Flt 4(h); 78% on Bmx(h); 95% on KDR(h).

For the molecule `C=CC(=O)Nc1ccc(Sc2ccnc(Nc3ccc(C#N)cc3)n2)cc1` [Compound 131, N-(4-(2-(4-cyanophenylao)pyrimidin-4-ylthio)phenyl)acrylamide], the inhibition at 0.5 µM at Blk(m), at Bmx(h), at BTK(h) and at KDR(h) was 100% throughout.

On to `CC(=O)Nc1ccc(Sc2nc(Nc3ccc(N4CCOCC4)cc3)ncc2C)cc1` [Compound 135, N-(4-(5-methyl-2-(4-morpholinophenylao)pyrimidin-4-ylthio)phenyl)acetamide], for which the inhibition at 0.5 µM is 9% on Blk(m); 96% on Flt 1(h); 99% on Flt 4(h); 58% at Bmx(h); 95% at KDR(h).

For the molecule `C=CC(=O)Nc1ccc(Sc2ccnc(Nc3ccc(N4CCOCC4)cc3)n2)c(Cl)c1C` [Compound 161, N-(3-chloro-2-methyl-4-(2-(4-morpholinophenylao)pyrimidin-4-ylthio)phenyl)acrylamide], the inhibition at 0.5 µM on Blk(m), on Bmx(h), at BTK(h) and on KDR(h) was 100% each time.

In the case of `C=CC(=O)Nc1cc(C)c(Sc2nc(Nc3ccc(N4CCOCC4)cc3)ncc2C)c(C)c1` [Compound 164, N-(3,5-dimethyl-4-(5-methyl-2-(4-morpholinophenylao)pyrimidin-4-ylthio)phenyl)acrylamide], the inhibition at 0.5 µM at Blk(m) is 62%; at Flt 1(h) it was 44%; on Flt 4(h) it was 97%; on Bmx(h), 87%; on KDR(h), 83%.

Turning to `C=CC(=O)Nc1ccc(Sc2nc(Nc3ccc(N4CCOCC4)cc3)ncc2-c2ccccc2)cc1` [Compound 307, N-(4-(2-(4-morpholinophenylao)-5-phenylpyrimidin-4-ylthio)phenyl)acrylamide], the inhibition at 0.5 µM on Blk(m) is 0%; at Flt 1(h), 19%; on Flt 4(h), 93%; at Bmx(h), 29%; on KDR(h) it was 72%.

With `C=CC(=O)Nc1ccc(Sc2ccnc(Nc3ccccc3)n2)cc1` [Compound 350, N-(4-(2-(phenylao)pyrimidin-4-ylthio)phenyl)acrylamide], the inhibition at 0.5 µM on Blk(m), at Bmx(h), at BTK(h) and at KDR(h) was 100% in each case.

For `C=CC(=O)Nc1ccc(Sc2ccnc(Nc3ccc(S(N)(=O)=O)cc3)n2)cc1` [Compound 352, N-(4-(2-(4-sulfamoylphenylao)pyrimidin-4-ylthio)phenyl)acrylamide], the inhibition at 0.5 µM at Blk(m), at Bmx(h), on BTK(h) and at KDR(h) was 100% each time.

As to `C=CC(=O)Nc1ccc(Sc2ccnc(Nc3ccc(Cl)cc3)n2)cc1` [Compound 353, N-(4-(2-(4-chlorophenylao)pyrimidin-4-ylthio)phenyl)acrylamide], the inhibition at 0.5 µM at Blk(m), on Bmx(h), at BTK(h) and on KDR(h) was 100% throughout.

In the case of `C=CC(=O)Nc1ccc(Sc2ccnc(Nc3ccc(F)c(C#N)c3)n2)cc1` [Compound 354, N-(4-(2-(3-cyano-4-fluorophenylao)pyrimidin-4-ylthio)phenyl)acrylamide], the inhibition at 0.5 µM on Blk(m), at Bmx(h), on BTK(h) and on KDR(h) was 100% each time.

Regarding `C=CC(=O)Nc1ccc(Sc2ccnc(Nc3cccc(C(=O)OC)c3)n2)cc1` [Compound 356, methyl 3-(4-(4-acrylamidophenylthio)pyrimidin-2-ylao)benzoate], the inhibition at 0.5 µM on Blk(m), at Bmx(h), on BTK(h) and on KDR(h) was 100% throughout.

Regarding `C=CC(=O)Nc1ccc(Sc2ccnc(Nc3ccc(C(=O)OC)cc3)n2)cc1` [Compound 357, methyl 4-(4-(4-acrylamidophenylthio)pyrimidin-2-ylao)benzoate], the inhibition at 0.5 µM at Blk(m) came to 48%; on Flt 1(h), 76%; at Flt 4(h), 99%; on Bmx(h), 48%; at KDR(h), 95%.
